Data: ChEMBL document CHEMBL5726156, “Pyridone or pyrimidone derivative, preparation method therefor and application thereof” (2019)

Target: Coagulation factor XI (Homo sapiens, UniProt P03951)
Experiment: In Vitro Inhibitory Effect of the Compounds of the Present Invention on the Enzymatic Activity of Blood-Coagulation Factor XIa: The following method was used to test the in vitro inhibitory effect of the compounds of the present invention on the activity of human blood-coagulation factor XIa, expressed by the Inhibition constant Ki.Solution preparation: reaction buffer: 0.03M HEPES acid, 0.145M NaCl, 0.005 M KCl, 0.1% PEG-8000, pH=7.5;HEPES 8.499 g, NaCl 8.47 g, KCl 0.3725, PEG 8000 1 g, plus ddH2O 800 ml; the pH was adjusted to 7.4 with HCl, and the volume was metered to 1 L.S2366 substrate stock solution (2 mM): a volume of substrate ([…]) was dissolved in 23 ml sterile deionized water, aliquoted, and stored at 4° C. in darkness.S2366 substrate working solution: the stock solution was diluted by 4 folds with the reaction buffer before use.FXIa working solution: 1 μl FXIa stock solution was added to 10 ml reaction buffer and thoroughly mixed before use.Method: 15 μl test sample working solution (15 μl DMSO for the control group) and 75 μl FXIa working solution were added to a 96-well plate, and incubated at room temperature for 15 min. Then 60 μl S2366 substrate working solution was added to initiate the reaction. […]

Coagulation factor XI, sequence (P03951 19-387 limits assumed): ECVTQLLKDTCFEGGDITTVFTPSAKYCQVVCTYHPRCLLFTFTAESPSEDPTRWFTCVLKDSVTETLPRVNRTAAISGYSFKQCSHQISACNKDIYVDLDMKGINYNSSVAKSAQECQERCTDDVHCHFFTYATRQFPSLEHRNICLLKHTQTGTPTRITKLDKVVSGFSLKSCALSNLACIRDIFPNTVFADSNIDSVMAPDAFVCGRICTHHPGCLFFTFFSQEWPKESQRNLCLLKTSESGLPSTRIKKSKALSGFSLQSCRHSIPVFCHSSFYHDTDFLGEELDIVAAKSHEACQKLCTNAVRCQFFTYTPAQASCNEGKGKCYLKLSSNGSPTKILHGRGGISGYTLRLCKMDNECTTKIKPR
Coagulation factor XI, sequence (P03951 388-625 limits assumed): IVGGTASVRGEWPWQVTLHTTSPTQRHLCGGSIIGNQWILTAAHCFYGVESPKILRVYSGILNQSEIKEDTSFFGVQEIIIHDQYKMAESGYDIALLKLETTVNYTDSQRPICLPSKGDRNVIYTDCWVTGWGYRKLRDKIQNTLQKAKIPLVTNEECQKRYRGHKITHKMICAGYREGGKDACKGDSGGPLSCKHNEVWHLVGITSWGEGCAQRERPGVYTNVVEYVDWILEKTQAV

Ki: 0.344 µM
Structure (SMILES): COC(=O)Nc1ccc(NC(=O)C2CCc3cc(-c4cc(Cl)ccc4-n4cnnn4)cc(=O)n32)cc1 (stereo unspecified)
